Data published in ChEMBL document CHEMBL3808381, “Structural Requirements and Docking Analysis of Amidine-Based Sphingosine Kinase 1 Inhibitors Containing Oxadiazoles” (ACS Med Chem Lett, 2016).
pKi: −log10 of the molar value.

Assays:
Sphingosine kinase 1 = Sphingosine kinase 1 (Homo sapiens, UniProt Q9NYA1); experiment: Inhibition of human SphK1 expressed in baculovirus infected in Sf9 cells using D-erythro-sphingosine as substrate and [gamma-32P]ATP by scintillation counting method
Sphingosine kinase 2 = target: T1, Sphingosine kinase 2 (Homo sapiens, UniProt Q9NRA0); experiment: Inhibition of human SphK2 expressed in baculovirus infected in Sf9 cells using D-erythro-sphingosine as substrate and [gamma-32P]ATP by scintillation counting method
T1 sequence (Q9NRA0 whole entry): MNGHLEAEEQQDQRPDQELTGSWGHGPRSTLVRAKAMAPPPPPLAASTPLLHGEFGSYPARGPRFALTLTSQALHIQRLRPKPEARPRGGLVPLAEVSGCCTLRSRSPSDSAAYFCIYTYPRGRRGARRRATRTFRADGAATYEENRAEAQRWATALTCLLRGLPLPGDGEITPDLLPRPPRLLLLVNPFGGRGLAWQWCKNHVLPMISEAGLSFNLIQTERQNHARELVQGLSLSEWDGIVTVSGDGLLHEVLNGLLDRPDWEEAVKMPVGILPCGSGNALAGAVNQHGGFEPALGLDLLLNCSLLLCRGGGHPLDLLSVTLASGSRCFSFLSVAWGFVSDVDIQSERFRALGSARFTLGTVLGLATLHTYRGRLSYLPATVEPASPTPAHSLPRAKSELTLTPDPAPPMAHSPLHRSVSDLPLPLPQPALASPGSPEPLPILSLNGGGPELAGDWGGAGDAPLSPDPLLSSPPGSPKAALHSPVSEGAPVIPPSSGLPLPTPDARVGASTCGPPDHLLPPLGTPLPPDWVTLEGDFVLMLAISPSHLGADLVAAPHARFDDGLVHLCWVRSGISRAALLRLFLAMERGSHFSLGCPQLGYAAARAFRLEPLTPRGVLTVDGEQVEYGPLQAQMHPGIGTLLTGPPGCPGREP

Sequence of Sphingosine kinase 1 (Q9NYA1 whole entry): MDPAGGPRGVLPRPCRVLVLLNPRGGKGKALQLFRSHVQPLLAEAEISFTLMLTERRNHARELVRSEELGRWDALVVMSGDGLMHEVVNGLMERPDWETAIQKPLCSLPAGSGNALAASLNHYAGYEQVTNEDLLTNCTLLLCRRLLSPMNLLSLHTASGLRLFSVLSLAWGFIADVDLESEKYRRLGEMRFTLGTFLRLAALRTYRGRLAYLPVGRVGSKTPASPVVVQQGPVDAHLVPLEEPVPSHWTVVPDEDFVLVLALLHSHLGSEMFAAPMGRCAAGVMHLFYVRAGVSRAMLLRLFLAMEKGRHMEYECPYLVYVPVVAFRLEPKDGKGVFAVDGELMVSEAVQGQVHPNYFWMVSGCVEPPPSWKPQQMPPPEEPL

pKi (Sphingosine kinase 1) | pKi (Sphingosine kinase 2) | SMILES
5.60 | 4.96 | CCCCCCCCCCCCCc1ccc(-c2noc(C3(C(=N)N)CC3)n2)cc1
7.40 | 4.85 | CCCCCCCCCCCCc1cccc(-c2noc(C3(C(=N)N)CC3)n2)c1
7.15 | 5.00 | CCCCCCCCCCCc1cccc(-c2noc(C3(C(=N)N)CC3)n2)c1
6.49 | 5.22 | CCCCCCCCCCCCc1ccc(-c2noc(C3(C(=N)N)CC3)n2)cc1
